Experimental data: the SangsterLogP compilation

SMILES | logP
O=C1OCCC1N1CCN(c2ccc(F)cc2)CC1 (centres undefined) | 2.05
O=C1OCCC1N1CCN(C(c2ccccc2)c2ccccc2)CC1 (centres undefined) | 3.28
COc1cc2c(cc1OC)C(c1ccccc1)N(C1CCOC1=O)CC2 (centres undefined) | 3.12
O=C1OCCC1N1Cc2ccccc2C1 (centres undefined) | 1.2
COc1cc2c(cc1OC)CN(C1CCOC1=O)CC2 (centres undefined) | 1.83
COc1ccc(Cl)cc1N1CCN(C2CCOC2=O)CC1 (centres undefined) | 1.18
COc1ccc(CCNC(C)=C2CCOC2=O)cc1OC | 2.53
NC(=O)c1ccccc1OC1CCOC1=O (centres undefined) | 0.93
O=C1OCCC1NCc1ccccc1 (centres undefined) | 1.47
O=C1OCCC1N1CCC(c2ccccc2)CC1 (centres undefined) | 2.43
CC(Nc1ccccc1)=C1CCOC1=O | 2.27
COc1cccc(N2CCN(C3CCOC3=O)CC2)c1 (centres undefined) | 2.29
O=C1OCCC1N1CCN(c2cccc(C(F)(F)F)c2)CC1 (centres undefined) | 2.94
CC1CC(NCc2ccccc2)C(=O)O1 (centres undefined) | 1.76
O=C1OCCC1NCc1ccc(Cl)cc1 (centres undefined) | 1.97
COc1ccccc1N1CCN(C2CCOC2=O)CC1 (centres undefined) | 1.44
Cc1cccc(C)c1NC1CCOC1=O (centres undefined) | 1.39
O=C1OCCC1N1CCc2ccccc2C1 (centres undefined) | 1.6
O=C1CC(N2CCN(c3ccccc3)CC2)CO1 (centres undefined) | 1.22
O=C1OCCC1N1CCN(c2ccccc2)CC1 (centres undefined) | 1.65
CC1CC(N2CCN(c3ccccc3)CC2)C(=O)O1 (centres undefined) | 1.56
O=C1OCCC1N1C(=O)c2ccccc2C1=O (centres undefined) | 1.11
O=C1OCCC1Oc1ccc(Oc2ccccc2)cc1 (centres undefined) | 1.32
COc1ccc(CNC2CCOC2=O)cc1 (centres undefined) | 1.43
O=C(NC1CCOC1=O)c1ccccc1 (centres undefined) | 0.84
COc1ccc(N2CCN(C3CCOC3=O)CC2)cc1 (centres undefined) | 1.46
O=C(Cc1ccccc1)NC1CCOC1=O (centres undefined) | 0.8
O=C1OCCC1NCc1ccccc1C(F)(F)F (centres undefined) | 1.83
CC(NCc1ccccc1)=C1CCOC1=O | 2.21
